Experimental findings from PMC10647704 (Molecules, 2023) are described below.

Converted amounts (≈) assume the structure as drawn. Read-outs that look alike come from different tables or passages of the source.

For experiment [1], the system named is C. albicans S2 (FLU-resistant). Nature of the experiment: microbe, parasite or virus in culture. In kind it is cell-based.
Experiment [2] has as its system C. albicans S2 (FLU-resistant). Put plainly: microbe, parasite or virus in culture. Type of experiment: cell-based. The settings on record: read-out: MIC, colorimetric assay.
The mark [3] stands for this setting: Candida albicans, 24 h, read-out: MIC, turbidity assay.
Where [4] appears, read: Candida albicans, 48 h, read-out: MIC, turbidity assay.
Where [5] appears, read: Candida albicans, 48 h, read-out: Turbidity Assay IC50 C. albicans S2.

As a reminder, the IC50 is the concentration at which inhibition is half-maximal. Take `CC1(C)C2CCC(Cn3[se]c4ccccc4c3=O)C1C2` (single isomer, unassigned; (-)) [CHB3]: the MIC stood at 50 µM (≈ 16.7 µg/mL) in experiment [1] (setting [3]); 25 µM (≈ 8.36 µg/mL) in experiment [1] (setting [4]); 25 µM (≈ 8.36 µg/mL) in experiment [2] (Candida albicans, 24 h); 25 µM (≈ 8.36 µg/mL) in experiment [2] (Candida albicans, 48 h). In addition, the IC50 in experiment [1] (setting [5]) came to 15.1 ± 0.2 µM.
As to `C[C@@H]1[C@@H](n2[se]c3ccccc3c2=O)C[C@H]2C[C@@H]1C2(C)C` [CHB1], the MIC in experiment [1] (setting [3]) and in experiment [1] (setting [4]) was 3.1 µM (≈ 1.04 µg/mL) throughout. Further, the IC50 in experiment [1] (setting [5]) is 1.8 ± 0.1 µM.
As for `C[C@H]1[C@H](n2[se]c3ccccc3c2=O)C[C@@H]2C[C@H]1C2(C)C` [CHB2], the IC50 in experiment [1] (setting [5]) was 6.2 ± 0.1 µM. Moreover, the MIC in experiment [2] (Candida albicans, 24 h) turned out to be 6.3 µM (≈ 2.11 µg/mL); in experiment [2] (Candida albicans, 48 h) it was 3.1 µM (≈ 1.04 µg/mL).
As for `C[C@H]1CC[C@@H]2[C@H]([C@@H]1n1[se]c3ccccc3c1=O)C2(C)C` [CHB4], the MIC was found to be 3.1 µM (≈ 1.04 µg/mL) in experiment [1] (setting [3]); 3.1 µM (≈ 1.04 µg/mL) in experiment [1] (setting [4]); 3.1 µM (≈ 1.04 µg/mL) in experiment [2] (Candida albicans, 24 h); 3.1 µM (≈ 1.04 µg/mL) in experiment [2] (Candida albicans, 48 h). Besides, the IC50 in experiment [1] (setting [5]) was 1.8 ± 0.1 µM.
Consider `C[C@@H]1C[C@H]2[C@@H](C[C@H]1n1[se]c3ccccc3c1=O)C2(C)C` [CHB5], for which the IC50 in experiment [1] (setting [5]) was 14.4 ± 0.5 µM.
With `CC(C)[C@@H]1CC[C@@H](C)C[C@H]1n1[se]c2ccccc2c1=O` [CHB6, (−)-N-(1R,2S,5R)-menthyl-1,2-benzizoselenazol-3(2H)-one], the MIC in experiment [1] (setting [3]) stood at 3.1 µM (≈ 1.04 µg/mL); in experiment [1] (setting [4]), 3.1 µM (≈ 1.04 µg/mL); in experiment [2] (Candida albicans, 24 h), 6.3 µM (≈ 2.12 µg/mL); in experiment [2] (Candida albicans, 48 h), 6.3 µM (≈ 2.12 µg/mL). Besides, the IC50 in experiment [1] (setting [5]) amounted to 1.8 ± 0.1 µM.
`O=c1c2ccccc2[se]n1-c1ccccc1` [EB, Ebselen, reference compound]: the IC50 in experiment [1] (Abs600nm at 48 h; read-out: Turbidity Assay IC50 C. albicans S2) was 14.3 ± 0.46 µM; in experiment [1] (Candida albicans, 48 h, Abs600nm at 48 h; read-out: Turbidity Assay IC50 C. albicans S2), approximately 14 µM. In addition, the MIC in experiment [1] (C. albicans S2, 24 h; for FLU the lowest concentration causing 70% decrease in turbidity; read-out: MIC, turbidity assay) worked out at 25.0 µM (≈ 6.85 µg/mL); in experiment [1] (C. albicans S2, 48 h; for FLU the lowest concentration causing 70% decrease in turbidity; read-out: MIC, turbidity assay), 25.0 µM (≈ 6.85 µg/mL); in experiment [1] (Candida albicans, 24 h; read-out: MIC, turbidity assay), 25 µM (≈ 6.85 µg/mL); in experiment [1] (Candida albicans, 48 h; read-out: MIC, turbidity assay), 25 µM (≈ 6.85 µg/mL); in experiment [2] (C. albicans S2, 24 h, resazurin) it was 25.0 µM (≈ 6.85 µg/mL); in experiment [2] (C. albicans S2, 48 h, resazurin) it was 25.0 µM (≈ 6.85 µg/mL). Also, the MIC in experiment [2] (Candida albicans, C. albicans S2, 24 h, resazurin) is 25 µM (≈ 6.85 µg/mL); in experiment [2] (Candida albicans, C. albicans S2, 48 h, resazurin) it was 25 µM (≈ 6.85 µg/mL).
